Assay results from patent US20180273482A1, “COMPOSITIONS AND METHODS FOR INCREASING, OR PREVENTING OR REVERSING LOSS OF, SKIN PIGMENTATION IN A MAMMALIAN SUBJECT” (THE TRUSTEES OF THE UNIVERSITY OF PENNSYLVANIA, priority 2015, published 2018).

Test system: C57BL/6 mice ear skin
Test: Topical G-1 treatment of mouse ear skin
Assay type: in vivo
Conditions: 2% G-1 topical, 3 weeks
Experimental: 2×10^5 melanocytes were seeded uniformly on 6-well tissue culture plates. […] For tissue melanin assays, tissue was weighed prior to boiling in 1M NaOH for 20 minutes.
2% (w/v) G-1 was prepared in DMSO. 20 μL of this solution was applied daily to the right ear, with vehicle only applied to the left ear, of 4-week-old C57BL/6 mice. These studies were performed without inclusion/exclusion criteria, randomization, or blinding. Based on a two-fold anticipated effect, this experiment was performed with 3 biological replicates.

CC(=O)c1ccc2c(c1)[C@@H]1C=CC[C@@H]1[C@H](c1cc3c(cc1Br)OCO3)N2 (racemic) [G-1, rel-1-[4-(6-bromo-1,3-benzodioxol-5-yl)-3aR,4S,5,9bS-tetrahydro-3H-cyclopenta[c]quinolin-8-yl]-ethanone]
pigment in treated ears compared to vehicle: increased pigment | melanin content of treated tissue vs controls (right ear, whole ear tissue melanin assay): 1.6 fold
